In US20210310069A1, “METHODS FOR DETERMINING GENE-ALPHA TOCOPHEROL INTERACTIONS” (BodySync. Inc., priority 2009, published 2021):

How the values were obtained:
[1] = Fasting plasma alpha-tocopherol by fluorimetry in healthy men supplemented with αT for six weeks; type: in vivo, human; settings: for fasting plasma αT mean: 6-weeks
Excerpt: (§1) Healthy middle-aged male volunteers (mean age 52.7±10 years; median years) were given dietary supplements of either […] (moderate dose), or […] (high dose) RRR-α tocopherol per day for six weeks. Subject numbers in each group were 57 and 102 respectively. All research participants gave written informed consent to take part. The study protocol was approved by the Southampton University Hospitals Trust Clinical Ethics Committee authorized the research protocol. Study participants continued with their normal diets while receiving the supplements. Subjects continued with their normal daily activities while on the study but visited the Wellcome Trust Clinical Research Facility at Southampton University Hospital Trust, after an overnight fast, at the beginning and end of the supplementation period. At the visit weight, height, and waist and hip circumference were measured, and blood samples taken for the measurement of cytokines.
(§2) Alpha-tocopherol in plasma was determined using fluorimetry according to methods described elsewhere (11). The limit of detection for αT was 7.2 pmol/L. Peripheral blood mononuclear cells (PBMCs) were prepared from heparinized whole blood samples using Leucosep sterile centrifuge tubes (Greiner Bio-one, Germany) and Histopaque gradient solution (Sigma-Aldrich Inc, MO, USA) and cultured in the presence of Lipopolysaccharide (LPS) (Sigma-Aldrich Inc, MO, USA) for 24h after which time the supernatants were removed and stored. Interleukin-6 (IL-6), tumor necrosis factor (TNF) and interleukin-1β (IL-1β) protein levels were quantitatively measured by the BD CBA Human Inflammation Kit (BD Bioscience, San Jose, Calif., USA). The operations were performed according to the manufacturer's instructions. The intensity of the fluorescence signal was acquired on a fluorescence activated cell sorter (FACS) flow cytometer (BD Becton-Dickinson), and analyzed using CBA software. The concentration range for detection using this assay is 20-5000 pg/ml for each of the proteins.

[2] = test system: IL-6; assay: IL-6 level of LPS-cultured PBMCs (BD CBA Human Inflammation Kit) from healthy men after 6 weeks of αT supplementation; type: in vivo; settings: for PMBC cytokine levels IL-6 mean: 6-weeks
Excerpt: as §1, §2
(§3) A linear regression was carried out where the outcome variable was Log(DeltaCk+minDeltaCk) Where Ck stands for IL-1, IL-6 or TNF-alpha. And DeltaCk=Followup-Baseline serum cytokine levels, and minDelta the most negative DeltaCk (<0) observed in the population baseline value, alpha tocopherol dose group, smoking status (age+BMI) were included as covariates.

[3] = test system: IL-1; assay: IL-1 (IL-1β) level of LPS-cultured PBMCs (BD CBA Human Inflammation Kit) from healthy men after 6 weeks of αT supplementation; type: in vivo; settings: for PMBC cytokine levels IL-1 mean: 6-weeks
Excerpt: as §1, §2, §3

[4] = test system: TNFα; assay: TNFα level of LPS-cultured PBMCs (BD CBA Human Inflammation Kit) from healthy men after 6 weeks of αT supplementation; type: in vivo; settings: for PMBC cytokine levels TNFα mean: 6-weeks
Excerpt: as §1, §2, §3

[5] = subjects who took vitamin E supplements; adjusted for age, smoking status, intake of carotene and vitamin C; cited from earlier work

Cc1c(C)c2c(c(C)c1O)CC[C@@](C)(CCC[C@H](C)CCC[C@H](C)CCCC(C)C)O2 [αT, RRR-α tocopherol]
fasting plasma αT mean ([1]; 75 IU/d, n = 57 healthy males): 22.6 µmol/L | fasting plasma αT mean ([1]; 600 IU/d, n = 102 healthy males): 31.3 µmol/L | change in plasma fasting levels of alpha-tocopherol ([1]; both dose groups (75 and 600 IU/d), 6 weeks): increase | PMBC cytokine levels IL-6 mean ([2]; 75 IU/d): 18.71 ng/L | PMBC cytokine levels IL-6 mean ([2]; 600 IU/d): 16.73 ng/L | change in IL-6 serum levels by genotype ([2]; GSTP1 313 AG and GG carriers (so in the source), 6 weeks): increase | change in IL-6 levels by genotype ([2]; SOD-28 TT versus CT and CC variants, 6 weeks, not significant after adjusting for multiple tests): lower increase | change in serum levels of IL-6 ([2]; both treatment groups, 6 weeks): increase | change in IL-6 levels by genotype ([2]; variant homozygotes GSTP1 313 (GG), 6 weeks, p<0.019): decreased levels | PMBC cytokine levels IL-1 mean ([3]; 75 IU/d): 7.38 ng/L | PMBC cytokine levels IL-1 mean ([3]; 600 IU/d): 6.93 ng/L | change in IL1 levels by genotype ([3]; GG carriers at IL10-1082, 6 weeks): lower increase | change in IL-1 levels by genotype ([3]; GG genotype at GSTP1 313, 6 weeks, not significant after FDR correction): decrease | change in serum levels of IL-1 ([3]; both treatment groups, 6 weeks): increase | change in IL1 levels by genotype ([3]; common genotypes at IL10-592 (CC) and IL10-819, 6 weeks): lower increase | PMBC cytokine levels TNFα mean ([4]; 75 IU/d): 1.48 ng/L | PMBC cytokine levels TNFα mean ([4]; 600 IU/d): 1.31 ng/L | change in TNFα by genotype ([4]; GA genotype at TNF-238, 6 weeks, p<0.016 after correcting for multiple tests): decrease | change in serum levels of TNFα ([4]; both treatment groups, 6 weeks): increase | change in serum levels of TNFα by genotype ([4]; genotypes AG and AA for IL10-1082 SNP and GG for TNF-238 SNP, 6 weeks): increase | increase in TNFα after supplementation ([4]; low-dose group (75 IU/d), 6 weeks, p<0.011 after adjusting for age, baseline levels, smoking status and BMI): 40.5%

vitamin E
reduction of major coronary heart disease [5]: 30%
